Drawing on patent publication US12077555B2, “STAT degraders and uses thereof” (Kymera Therapeutics, Inc., priority 2019, dated 2024), this text covers DC50 for 10 compounds.

Each structure is given as a SMILES string.

This assay has as its target STAT3 (Homo sapiens, UniProt P40763). As to the kind of experiment: STAT3 HiBiT degradation assay in transfected A549 cells. The class given is cell-based. The arrangement: expressed in transfected cells; host or cells: A549. Conditions: A549, 24 h; read-out: STAT3 HiBiT A549 degradation 24 h: Average external-Abs DC50. Put shortly:
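Transfected A549 cells (~2000/well) plated 24 h, then treated 24 h at 37 °C, 5% CO2 with a 3-fold, 10-point compound dilution. HiBiT lytic luminescence read after 10 min at room temperature; remaining STAT3 normalized to negative and positive controls, four-parameter fit. DC50 binned A <0.01, B 0.01–0.1, C 0.1–1.0, D >1.0 µM.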

STAT3, sequence (P40763 whole entry): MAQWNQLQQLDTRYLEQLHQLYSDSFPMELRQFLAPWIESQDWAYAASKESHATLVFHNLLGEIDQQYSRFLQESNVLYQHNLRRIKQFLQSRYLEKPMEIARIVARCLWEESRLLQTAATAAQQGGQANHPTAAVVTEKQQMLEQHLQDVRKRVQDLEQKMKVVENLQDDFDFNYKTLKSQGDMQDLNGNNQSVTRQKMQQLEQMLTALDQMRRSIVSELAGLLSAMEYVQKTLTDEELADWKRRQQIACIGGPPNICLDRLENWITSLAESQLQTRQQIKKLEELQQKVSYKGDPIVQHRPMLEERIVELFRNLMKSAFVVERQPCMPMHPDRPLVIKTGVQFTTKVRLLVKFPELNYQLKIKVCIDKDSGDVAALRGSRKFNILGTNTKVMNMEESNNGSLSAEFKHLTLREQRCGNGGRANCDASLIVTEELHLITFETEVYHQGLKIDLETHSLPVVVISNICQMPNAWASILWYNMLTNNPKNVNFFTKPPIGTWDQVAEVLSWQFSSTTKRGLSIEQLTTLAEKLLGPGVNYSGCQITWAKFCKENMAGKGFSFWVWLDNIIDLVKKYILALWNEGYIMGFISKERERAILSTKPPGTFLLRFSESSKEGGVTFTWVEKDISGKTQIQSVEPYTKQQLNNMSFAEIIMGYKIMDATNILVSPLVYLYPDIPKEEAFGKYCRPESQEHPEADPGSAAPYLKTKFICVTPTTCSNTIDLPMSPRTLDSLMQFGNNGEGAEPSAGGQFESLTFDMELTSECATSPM

Consider `Cc1ncsc1-c1ccc([C@H](C)NC(=O)[C@@H]2C[C@@H](O)CN2C(=O)[C@@H](NC(=O)CCCCCc2cc(Cl)cc(OC[C@@H](NC(=O)[C@@H]3Cc4cccc5c4N3C(=O)[C@@H](NC(=O)c3cc4cc(C(=O)P(=O)(O)O)ccc4[nH]3)CC5)C(N)=O)c2)C(C)(C)C)cc1` [Compound I-204, 2-[[(2S,11S)-2-[[(2S)-4-carbamoyl-1-[3-chloro-5-(5-[[(2S)-1-[(2S,4R)-4-hydroxy-2-[[(1S)-1-[4-(4-methyl-1,3-thiazol-5-yl)phenyl]ethyl]carbamoyl]prrolidin-1-yl]-3,3-dimethyl-1-oxobutan-2-yl]carbamoyl]pentyl)phenoxy]butan-2-yl]carbamoyl]-12-oxo-1-azatricyclo[6.4.1.0^[4,13]]trideca-4(13),5,7-trien-11-yl]carbamoyl]-1H-indole-5-carbonylphosphonic acid], for which the DC50 is 10 to 100 nM.
The figure for `C/C(=C\C(=O)N[C@H]1CCc2cccc3c2N(C1=O)[C@H](C(=O)N[C@@H](CCC(N)=O)[C@@H](C)OCc1ccc(CCCCC(=O)N[C@H](C(=O)N2C[C@H](O)C[C@H]2C(=O)N[C@@H](C)c2ccc(-c4scnc4C)cc2)C(C)(C)C)cc1)C3)c1cccc(C(F)(F)P(=O)(O)O)c1` [Compound I-142] is more than 1000 nM.
The figure for `CC(=O)N1CC[C@H]2CC[C@@H](C(=O)N[C@@H](CCC(=O)O)COc3cc(F)cc(CCCC(=O)N[C@H](C(=O)N4C[C@H](O)C[C@H]4C(=O)N[C@@H](C)c4ccc(-c5scnc5C)cc4)C(C)(C)C)c3Cl)N2C(=O)[C@@H](NC(=O)c2cc3cc(C(=O)P(=O)(O)O)ccc3[nH]2)C1` [Compound I-289] is less than 10 nM.
Regarding `Cn1c(=O)n(C2CCC(=O)NC2=O)c2ccc(NCCCCCC(=O)N3CC[C@H]4CC[C@@H](C(=O)N[C@@H](CCC(N)=O)C(=O)NC(c5ccccc5)c5ccccc5)N4C(=O)[C@@H](NC(=O)c4cc5cc(C(=O)P(=O)(O)O)ccc5[nH]4)C3)cc21` (stereo partly drawn) [Compound I-132, 2-[[(5S,8S,10aR)-8-[[(1S)-3-carbamoyl-1-(diphenylmethylcarbamoyl)propyl]carbamoyl]-3-(6-[[1-(2,6-dioxopiperidin-3-yl)-3-methyl-2-oxo-1,3-benzodiazol-5-yl]amino]hexanoyl)-6-oxo-octahydropyrrolo[1,2-a][1,5]diazocin-5-yl]carbamoyl]-1H-indole-5-carbonylphosphonic acid], the DC50 lay within 100 to 1000 nM.
As to `Cc1ncsc1-c1ccc([C@H](C)NC(=O)[C@@H]2C[C@@H](O)CN2C(=O)[C@@H](NC(=O)CCCCc2cccc(OC[C@H](CCC(N)=O)NC(=O)[C@@H]3Cc4cccc5c4N3C(=O)[C@@H](NC(=O)c3cc4cc(C(=O)P(=O)(O)O)ccc4[nH]3)CC5)c2)C(C)(C)C)cc1` [Compound I-211, diammonium 2-[[(2S,11S)-2-[[(2S)-4-carbamoyl-1-[3-(4-[[(2S)-1-[(2S,4R)-4-hydroxy-2-[[(1S)-1-[4-(4-methyl-1,3-thiazol-5-yl)phenyl]ethyl]carbamoyl]pyrrolidin-1-yl]-3,3-dimethyl-1-oxobutan-2-yl]carbamoyl]butyl)phenoxy]butan-2-yl]carbamoyl]-12-oxo-1-azatricyclo[6.4.1.0^[4,13]]trideca-4(13),5,7-trien-11-yl]carbamoyl]-1H-indole-5-carbonylphosphonate], the 50% degradation concentration (DC50) was in the range of 10 to 100 nM.
As to `Cn1c(=O)n(C2CCC(=O)NC2=O)c2ccc(CCCCCCOc3ccc4c5c3CC[C@H](NC(=O)c3cc6cc(C(=O)P(=O)(O)O)ccc6[nH]3)C(=O)N5[C@H](C(=O)N[C@@H](CCC(N)=O)C(=O)NC(c3ccccc3)c3ccccc3)C4)cc21` (stereo partly drawn) [Compound I-269, 2-[[(2S,11S)-2-[[(1S)-3-Carbamoyl-1-(diphenylmethylcarbamoyl)propyl]carbamoyl]-7-([6-[1-(2,6-dioxopiperidin-3-yl)-3-methyl-2-oxo-1,3-benzodiazol-5-yl]hexyl]oxy)-12-oxo-1-azatricyclo[6.4.1.0^[4,13]]trideca-4(13),5,7-trien-11-yl]carbamoyl]-1H-indole-5-carbonylphosphonic acid], the DC50 is more than 1000 nM.
Regarding `Cn1c(=O)n(C2CCC(=O)NC2=O)c2cccc(CCCCCC(=O)N3CC[C@H]4CC[C@@H](C(=O)N[C@@H](CCC(N)=O)C(=O)NC(c5ccccc5)c5ccccc5)N4C(=O)[C@@H](NC(=O)c4cc5cc(C(=O)P(=O)(O)O)ccc5[nH]4)C3)c21` (stereo partly drawn) [Compound I-123, 2-[[(5S,8S,10aR)-8-[[(1S)-3-carbamoyl-1-(diphenylmethylcarbamoyl)propyl]carbamoyl]-3-[6-[1-(2,6-dioxopiperidin-3-yl)-3-methyl-2-oxo-1,3-benzodiazol-4-yl]hexanoyl]-6-oxo-octahydropyrrolo[1,2-a][1,5]diazocin-5-yl]carbamoyl]-1H-indole-5-carbonylphosphonic acid], the DC50 was more than 1000 nM.
On to `Cc1ncsc1-c1ccc([C@H](C)NC(=O)[C@@H]2C[C@@H](O)CN2C(=O)[C@@H](NC(=O)CCCCc2ccc(CO[C@H](C)[C@H](CCC(N)=O)NC(=O)[C@@H]3Cc4cccc5c4N3C(=O)[C@@H](NC(=O)c3cc4cc(C(=O)P(=O)(O)O)ccc4[nH]3)CC5)cc2)C(C)(C)C)cc1` [Compound I-227], for which the DC50 lay in the range of 100 to 1000 nM.
`CC(C)c1ccc(CNC(=O)[C@H](CCC(N)=O)NC(=O)[C@@H]2CC[C@@H]3CCN(C(=O)[C@H]4CC[C@@H](CCc5ccc6c(c5)n(C)c(=O)n6C5CCC(=O)NC5=O)CC4)C[C@H](NC(=O)c4cc5cc(C(=O)P(=O)(O)O)ccc5[nH]4)C(=O)N32)cc1` (stereo partly drawn) [Compound I-295, (2-(((5S,8S,10aR)-8-(((S)-5-amino-1-((4-isopropylbenzyl)amino)-1,5-dioxopentan-2-yl)carbamoyl)-3-((1r,4R)-4-(2-(1-(2,6-dioxopiperidin-3-yl)-3-methyl-2-oxo-2,3-dihydro-1H-benzo[d]imidazol-5-yl)ethyl)cyclohexane-1-carbonyl)-6-oxodecahydropyrrolo[1,2-a][1,5]diazocin-5-yl)carbamoyl)-1H-indole-5-carbonyl)phosphonic acid]: the DC50 was less than 10 nM.
The figure for `Cc1ccc(OC[C@H](CCC(N)=O)NC(=O)[C@@H]2Cc3cccc4c3N2C(=O)[C@@H](NC(=O)c2cc3cc(C(=O)P(=O)(O)O)ccc3[nH]2)CC4)cc1CCCCCC(=O)N[C@H](C(=O)N1C[C@H](O)C[C@H]1C(=O)N[C@@H](C)c1ccc(-c2scnc2C)cc1)C(C)(C)C` [Compound I-212, 2-[[(2S,11S)-2-[[(2S)-4-carbamoyl-1-[3-(5-[[(2S)-1-[(2S,4R)-4-hydroxy-2-[[(1S)-1-[4-(4-methyl-1,3-thiazol-5-yl)phenyl]ethyl]carbamoyl]pyrrolidin-1-yl]-3,3-dimethyl-1-oxobutan-2-yl]carbamoyl]pentyl)-4-methylphenoxy]butan-2-yl]carbamoyl]-12-oxo-1-azatricyclo[6.4.1.0^[4,13]]trideca-4(13),5,7-trien-11-yl]carbamoyl]-1H-indole-5-carbonylphosphonic acid] is 10 to 100 nM.
